Measured values as given in patent publication US7097992B2, “Uses of human UDP-glucuronosyltransferase 2B7 to detect and treat cancer” (priority 2001, dated 2006).

Tests used:
human liver microsomes = assay: In vitro glucuronidation of lysophosphatidic acids by human liver microsomes; type: in vitro ADME; settings: for Glucuronidation by human liver microsomes (in words): FIG. 9A
Description: (§1) Reactions with substrates were run in duplicates.
(§2) Lysophosphatidic acid (LPA) stimulates lysophosphatidic acid receptors which in turn activate PKC and Ras-MAPK signalling pathways. Lysophosphatidic acid is a lipid second messenger involved in progression of malignant ovarian cancer. Cellular effects of lysophosphatidic acid accumulation include stimulation of cell proliferation, inhibition of apoptosis and increased invasiveness of cancer cells. It was hypothesized that anti-proliferative activity of UDP-glucuronosyltransferase 2B7 in the ovarian cancer cell model described above may be associated with inactivation of lysophosphatidic acid through glucuronidation. Thus, in vitro glucuronidation experiments on three different lysophosphatidic acid compounds (FIG. 10) was conducted using human liver microsomes and a recombinant UDP-glucuronosyltransferase 2B7 expressed in HK293 cells.

[1] = molecular target: T1, recombinant UDP-glucuronosyltransferase 2B7 (Homo sapiens, UniProt P16662); assay: In vitro glucuronidation of lysophosphatidic acids by recombinant UGT2B7 expressed in HK293 cells; type: in vitro ADME; settings: for Glucuronidation by UGT2B7 (in words): recombinant UGT2B7, FIG. 9A
T1 construct: made in house
T1 sequence (P16662 24-529): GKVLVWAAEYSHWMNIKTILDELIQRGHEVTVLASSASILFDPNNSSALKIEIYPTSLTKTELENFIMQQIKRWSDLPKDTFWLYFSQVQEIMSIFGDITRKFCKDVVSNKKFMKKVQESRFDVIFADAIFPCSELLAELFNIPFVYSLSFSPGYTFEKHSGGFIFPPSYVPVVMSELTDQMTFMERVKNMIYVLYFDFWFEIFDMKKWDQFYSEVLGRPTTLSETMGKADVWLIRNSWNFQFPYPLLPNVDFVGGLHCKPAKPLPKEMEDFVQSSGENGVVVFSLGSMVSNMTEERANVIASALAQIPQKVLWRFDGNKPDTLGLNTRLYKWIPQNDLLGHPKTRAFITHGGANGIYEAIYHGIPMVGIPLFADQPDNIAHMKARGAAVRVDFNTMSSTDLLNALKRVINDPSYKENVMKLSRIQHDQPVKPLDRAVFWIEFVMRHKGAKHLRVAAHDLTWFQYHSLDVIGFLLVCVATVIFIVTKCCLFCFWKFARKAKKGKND
Description: as §1, §2

| Specific activity of glucuronidation (human liver microsomes) [pmol/min/mg] | Glucuronidation by human liver microsomes (in words) (human liver microsomes) | Glucuronidation by UGT2B7 (in words) [1] | Specific activity of glucuronidation ([1]; recombinant UGT2B7 expressed in HK293 cells) [pmol/min/mg] | Structure (SMILES) |
| --- | --- | --- | --- | --- |
| 560 | same activity profile | actively glucuronidated | 250 | CCCCCCCC/C=C\CCCCCCCC(=O)OCC(O)COP(=O)(O)O (centres unmarked) [oleoyl-lysophosphatidic acid] |
|  | same activity profile | not |  | CCCCCCCCCCCCCCCCCC(=O)OC[C@@H](O)COP(=O)(O)O [stearoyl-lysophosphatidic acid] |
|  | same activity profile | not |  | CCCCCCCCCCCCCCCC(=O)OC[C@@H](O)COP(=O)(O)O [palmitoyl-lysophosphatidic acid] |
